Reference: article PMC6211257, “Synthesis and cytotoxic activities of novel copper and silver complexes of 1,3-diaryltriazene-substituted sulfonamides” (Journal of Enzyme Inhibition and Medicinal Chemistry, 2018)
“And” between values parts separate entries of the source, which are not always exact repeats. Equal entries are not always repeated. Where two headings read alike, the source gives them in different places.

Key:
[1] = test system: normal retinal pigment epithelium (ARPE-19) cells; experiment: MTT cytotoxicity assay, ARPE-19; format: cell-based, human; conditions: 48 h, means of three independent experiments
From the text: (§1) The cells studied were obtained from the American Type Culture Collection (ATCC, Manassas, VA), and included human colorectal adenocarcinoma (DLD-1), cervix carcinoma (HeLa), breast adenocarcinoma (MDA-MB-231), colon adenocarcinoma (HT-29), endometrial adenocarcinoma (ECC-1), prostate cancer (DU-145 and PC-3), normal embryonic kidney (HEK-293), normal prostate epithelium (PNT-1A), and normal retinal pigment epithelium (ARPE-19) cells. As recommended by ATCC, cells were subjected to propagation using DMEM-F12 and RPMI-1640 media, with supplements 10% fetal bovine serum, L-glutamine (2 mM), penicillin (100 U/mL) and streptomycin ([…]) in a humidified atmosphere (5% CO2) at 37 °C. When the cultures reached 70–80% confluence, the cells were harvested using 0.25% trypsin (Sigma).
(§2) Cytotoxic activities were based on the reduction of (3–(4,5-dimethylthiazol-2-yl)-2,5-diphenyltetrazolium bromide) (MTT) by mitochondrial dehydrogenase of viable cells to give a blue formazan product which can be measured spectrophotometrically by UV–Vis measurements. MTT colorimetric assays were performed using 96 well plates. The cells were seeded in a 96 well plate at concentration 5.0 × 10^4 cells/well and incubated at 37 °C for 24 h. After treatment with various concentrations of the test compound (1, 5, 10, 25, 50, 100 and 200 μM), the cells were incubated for an additional 48 h at 37 °C. After incubation, the medium was removed, and the cells in each well were incubated with 100 μL MTT solution (5 mg/mL) for 4 h at 37 °C. MTT solutions were then discarded, and 100 μL DMSO were added to dissolve insoluble formazan crystals. Optical densities were measured at 570 nm (Varioskan Flash Multimode Reader, Thermo, Waltham, MA). Data were obtained from triplicate wells. Cytotoxic effects were determined in reference to negative controls (vehicle treated cells). Cytotoxicity was expressed as the mean percentage increase relative to the unexposed control (mean ± SD). All statistical analyses were performed using SPSS package program for Windows (Version 20, Chicago, IL). Control values were set to 0% cytotoxicity. Cytotoxicity data, where appropriate, were fitted to sigmoidal curves and a four-parameter logistic model was used to calculate the IC50 values, the concentration of material causing 50% inhibition, compared to the untreated controls. 5-Fluorouracil (5-FU) was also used as a control agent[21]^,[22].

[2] = test system: normal embryonic kidney (HEK-293) cells; experiment: MTT cytotoxicity assay, HEK-293; format: cell-based, human; conditions: 48 h, means of three independent experiments
From the text: as §1, §2

[3] = test system: cervix carcinoma (HeLa) cells; experiment: MTT cytotoxicity assay, HeLa; format: cell-based, human; conditions: for IC50: cancer cell, MTT, 48 h, means of three independent experiments
From the text: as §1, §2

[4] = test system: breast adenocarcinoma (MDA-MB-231) cells; experiment: MTT cytotoxicity assay, MDA-MB-231; format: cell-based, human; conditions: 48 h, means of three independent experiments
From the text: as §1, §2

[5] = test system: normal prostate epithelium (PNT-1A) cells; experiment: MTT cytotoxicity assay, PNT-1A; format: cell-based, human; conditions: normal cell, 48 h, means of three independent experiments, read-out: IC50 PNT-1A
From the text: as §1, §2

[6] = test system: prostate cancer (PC-3) cells; experiment: MTT cytotoxicity assay, PC-3; format: cell-based, human; conditions: 48 h, means of three independent experiments
From the text: as §1, §2

[7] = test system: endometrial adenocarcinoma (ECC-1) cells; experiment: MTT cytotoxicity assay, ECC-1; format: cell-based, human; conditions: 48 h, means of three independent experiments
From the text: as §1, §2

[8] = test system: colon adenocarcinoma (HT-29) cells; experiment: MTT cytotoxicity assay, HT-29; format: cell-based, human; conditions: 48 h, means of three independent experiments
From the text: as §1, §2

[9] = test system: human colorectal adenocarcinoma (DLD-1) cells; experiment: MTT cytotoxicity assay, DLD-1; format: cell-based; conditions: 48 h, means of three independent experiments
From the text: as §1, §2

[10] = test system: prostate cancer (DU-145) cells; experiment: MTT cytotoxicity assay, DU-145; format: cell-based, human; conditions: cancer cell, MTT, 48 h, means of three independent experiments, read-out: IC50 DU-145
From the text: as §1, §2

[11] = Homo sapiens, ARPE-19, normal cell
[12] = Homo sapiens, HEK293, normal cell
[13] = Homo sapiens, MDA-MB-231, cancer cell
[14] = Homo sapiens, PC-3, cancer cell
[15] = Homo sapiens, ECC-1, cancer cell
[16] = Homo sapiens, HT-29, cancer cell
[17] = Homo sapiens, DLD-1, cancer cell

| Structure (SMILES) | IC50 ([1]; normal cell) | IC50 ([2]; normal cell) | IC50 [3] | IC50 ([4]; cancer cell) | IC50 [5] | IC50 ([6]; cancer cell) | IC50 ([7]; cancer cell) | IC50 ([8]; cancer cell) | IC50 ([9]; cancer cell) | IC50 [10] | other results |
| --- | --- | --- | --- | --- | --- | --- | --- | --- | --- | --- | --- |
| CC(=O)[O][Cu-]1([O]C(C)=O)[N](c2cccc(S(N)(=O)=O)c2)N=[N+]1c1ccc(C(=O)O)cc1 [Compound L3-Cu] | > 300 µM | 135 ± 15.6 µM | 63.9 ± 4.3 µM | 48.3 ± 2.5 µM | 120 ± 13.5 µM | 196 ± 22.6 µM | 362 ± 38.1 µM | 205 ± 20.3 µM | 65.2 ± 2.5 µM | 58.3 ± 6.4 µM |  |
| CC(=O)[O][Cu-]1([O]C(C)=O)[N](c2cccc(S(N)(=O)=O)c2)N=[N+]1c1cc(C)cc(C)c1 [Compound L5-Cu] | 84.3 ± 8.4 µM | 36.3 ± 3.6 µM | 15.2 ± 1 µM | 26 ± 2.5 µM | 46.4 ± 4.6 µM | 79.2 ± 8.5 µM | 97.6 ± 9.7 µM | 84.4 ± 8.4 µM | 58.8 ± 3.9 µM | 32.4 ± 3.2 µM |  |
| COc1ccc([N+]2=N[N](c3cccc(S(N)(=O)=O)c3)[Cu-]2([O]C(C)=O)[O]C(C)=O)cc1OC [Compound L4-Cu] | 105 ± 13.5 µM | 197 ± 23.5 µM | 116 ± 9.2 µM | 206 ± 25.1 µM | 125 ± 14.8 µM | 297 ± 32.4 µM | 308 ± 34.2 µM | 199 ± 22.5 µM | 58.4 ± 5.8 µM | 160 ± 18 µM |  |
| COc1ccc([N+]2=N[N](c3cccc(S(N)(=O)=O)c3)[Cu-]2([O]C(C)=O)[O]C(C)=O)cc1 [Compound L2-Cu] | 132 ± 15.6 µM | 159 ± 19.4 µM | 2.08 µM and 2.1 µM | 50 ± 2.4 µM | 95.1 ± 11.1 µM | 65.3 ± 8.5 µM | 39.5 ± 2.5 µM | 94.9 ± 9.4 µM | 42.7 ± 3.3 µM | 116 ± 14.6 µM |  |
| Cc1cc(C)cc(NN=Nc2cccc(S(N)(=O)=O)c2)c1 [Compound L5, 3-(3-(3,5-dimethylphenyl)triaz-1-en-1-yl)benzenesulfonamide] |  |  |  |  |  |  |  |  |  |  | IC50 [1, 11]: > 300 µM; IC50 [2, 12]: 103 ± 10.2 µM; IC50 ([3]; Homo sapiens, HeLa): 65.1 ± 4.5 µM; IC50 [4, 13]: 144 ± 18.6 µM; IC50 ([5]; Homo sapiens, PNT1A): 177 ± 20.5 µM; IC50 [6, 14]: 131 ± 12.4 µM; IC50 [7, 15]: 132 ± 13.1 µM; IC50 [8, 16]: 112 ± 16.5 µM; IC50 [9, 17]: 224 ± 12.4 µM; IC50 ([10]; Homo sapiens, DU-145): 97.8 ± 9.7 µM |
| COc1ccc(N=N[N]([Ag][O]C(C)=O)c2cccc(S(N)(=O)=O)c2)cc1 [Compound L2-Ag] | 22 ± 10.2 µM | 17.8 ± 1.7 µM | 2.8 ± 0.1 µM | 30.3 ± 3 µM | 17.5 ± 17.5 µM | 28.2 µM | 29.1 µM | 24.9 ± 2.5 µM | 31.6 µM | 18.6 µM | fold increased potency than the reference drug 5-FU ([3]; HeLa cells, ratio of IC50 values): 6.84 fold |
| COc1ccc(/N=N/Nc2cccc(S(N)(=O)=O)c2)cc1 [Compound L2, 3–(3-(4-methoxyphenyl)triaz-1-en-1-yl)] |  |  |  |  |  |  |  |  |  |  | IC50 [1, 11]: > 300 µM; IC50 [2, 12]: 146 ± 13.4 µM; IC50 ([3]; Homo sapiens, HeLa): 768 ± 6.5 µM; IC50 [4, 13]: 144 ± 2.4 µM; IC50 ([5]; Homo sapiens, PNT1A): > 300 µM; IC50 [6, 14]: 171 ± 20.5 µM; IC50 [7, 15]: > 300 µM; IC50 [8, 16]: 265 ± 30 µM; IC50 [9, 17]: 223 ± 8.3 µM; IC50 ([10]; Homo sapiens, DU-145): 154 ± 25.6 µM |
| COc1ccc(N=N[N]([Ag][O]C(C)=O)c2cccc(S(N)(=O)=O)c2)cc1OC [Compound L4-Ag] | 285 ± 30.5 µM | 5.5 ± 0.6 µM | 139 ± 28 µM | > 300 µM | 139 ± 16.5 µM | 137 ± 15.8 µM | 104 ± 10.3 µM | 241 ± 28.5 µM | 173 ± 10.3 µM | 237 ± 28.5 µM |  |
| COc1ccc(/N=N/Nc2cccc(S(N)(=O)=O)c2)cc1OC [Compound L4, 3–(3-(3,4-dimethoxyphenyl)triaz-1-en-1-yl) benzenesulfonamide] |  |  |  |  |  |  |  |  |  |  | IC50 [1, 11]: > 300 µM; IC50 [2, 12]: > 300 µM; IC50 ([3]; Homo sapiens, HeLa): > 300 µM; IC50 [4, 13]: 155 ± 2.6 µM; IC50 ([5]; Homo sapiens, PNT1A): 237 ± 26.8 µM; IC50 [6, 14]: 299 ± 32.3 µM; IC50 [7, 15]: > 300 µM; IC50 [8, 16]: > 300 µM; IC50 [9, 17]: > 300 µM; IC50 ([10]; Homo sapiens, DU-145): 182 ± 23.4 µM |
| CC(=O)[O][Ag][N](N=Nc1ccc(F)cc1)c1cccc(S(N)(=O)=O)c1 [Compound L1-Ag] | > 300 µM | > 300 µM | > 300 µM | 96.8 ± 9.6 µM | 210 ± 20.9 µM |  | 207 ± 25.6 µM | 186 ± 16.5 µM | 279 ± 12.9 µM | 137 ± 16.5 µM |  |
| CC(=O)[O][Ag][N](N=Nc1cc(C)cc(C)c1)c1cccc(S(N)(=O)=O)c1 [Compound L5-Ag] | 109 ± 11 µM | 30.5 ± 4.5 µM | 9.61 µM and 9.6 µM | 148 ± 19.5 µM | 111 ± 11 µM | 112 ± 13.4 µM | 136 ± 13.5 µM | 162 ± 16.1 µM | 111 ± 9 µM | 100 ± 10.1 µM |  |
| CC(=O)[O][Cu-]1([O]C(C)=O)[N](c2cccc(S(N)(=O)=O)c2)N=[N+]1c1ccc(F)cc1 [Compound L1-Cu] | 119 ± 13.5 µM | 68.8 ± 8.7 µM | 5.02 µM and 5 µM | 117 ± 14.2 µM | 76.5 ± 8.5 µM | 102 ± 10.2 µM | 26.2 ± 2.6 µM | 199 ± 24.3 µM | 47.1 ± 4.7 µM | 105 ± 13.5 µM |  |
| NS(=O)(=O)c1cccc(N/N=N/c2ccc(C(=O)O)cc2)c1 [Compound L3, 4–(3–(3-sulfamoylphenyl)triaz-2-en-1-yl) benzoic acide] |  |  |  |  |  |  |  |  |  |  | IC50 [1, 11]: > 300 µM; IC50 [2, 12]: > 300 µM; IC50 ([3]; Homo sapiens, HeLa): > 300 µM; IC50 [4, 13]: > 300 µM; IC50 ([5]; Homo sapiens, PNT1A): > 300 µM; IC50 [6, 14]: > 300 µM; IC50 [7, 15]: 197 ± 23.5 µM; IC50 [8, 16]: > 300 µM; IC50 [9, 17]: > 300 µM; IC50 ([10]; Homo sapiens, DU-145): 186 ± 20.6 µM |
| CC(=O)[O][Ag][N](N=Nc1ccc(C(=O)O)cc1)c1cccc(S(N)(=O)=O)c1 [Compound L3-Ag] | 9.5 ± 0.9 µM | 9.9 ± 0.9 µM | 3.4 ± 0.2 µM | 9.8 ± 0.9 µM | 9.2 ± 0.9 µM | 5.1 ± 0.5 µM | 16.2 ± 1.6 µM | 10.1 ± 3.1 µM | 3.3 ± 0.3 µM | 4.8 ± 0.4 µM |  |
